Results reported in patent US9376470B2, “Polypeptide having angiogenesis-inducing activity and antibacterial activity, and use thereof for medical purposes” (FunPep Inc., priority 2008, dated 2016).
Peptide text beside a SMILES is read from it.

System: human vascular endothelial cells and fibroblast cells (co-culture, Angiogenesis Kit KZ-1000)
Conditions: polypeptide 10 μg/mL, day 11 of culture
Description: Using AG30-5C as a positive control, the angiogenesis-inducing activity of SR-1 and SR-2 was measured. […] As a negative control, polypeptide-free group (Control) was used.
Cells were cultured at 37° C. under 5% CO2 in a 24-well plate using the special media to which the polypeptide was added. The medium was replaced with a medium containing the same polypeptide on day 4, day 7 and day 9 of culture. On day 11 from the beginning of the culture, the medium was removed and staining was performed using a kit for staining lumina (for CD31 antibody staining) according to the following procedure.
The primary antibody (mouse anti-human CD31 antibody) was 4000-fold diluted with a blocking solution (Dulbecco's phosphate buffered saline (PBS(−)) containing 1% BSA). To each well, 0.5 mL of this primary antibody solution was added, and the plate was incubated for 60 minutes at 37° C. After the completion of the incubation, each well was washed totally 3 times with 1 mL of the blocking solution.
Then, 0.5 mL of a secondary antibody solution (goat anti-mouse IgG/alkaline phosphatase conjugate) 500-fold diluted with the blocking solution was added to each well. The plate was incubated for 60 minutes at 37° C., and thereafter each well was washed 3 times with 1 mL of distilled water. During that period, 2 tablets of BCIP/NBT were dissolved into distilled water, and the obtained solution was filtered through a filter having a pore size of 0.2 μm to prepare a substrate solution. To each well, 0.5 mL of the prepared BCIP/NBT substrate solution was added, and the plate was incubated at 37° C. until the lumina turned to deep purple (typically for 5-10 minutes). After the completion of the incubation, each well was washed 3 times with 1 mL of distilled water. After washing, the washing solution was removed by aspiration, and the plate was left to stand and dry naturally. After drying, photographs of each well were taken under a microscope.
Each of the obtained images was quantified using an angiogenesis quantification software. Computer analysis was carried out on various parameters.

SMILES: CC[C@H](C)[C@H](NC(=O)[C@H](CC(C)C)NC(=O)[C@H](CCCCN)NC(=O)[C@H](CC(C)C)NC(=O)[C@@H](N)CCSC)C(=O)N[C@@H](Cc1ccccc1)C(=O)N[C@@H](CC(C)C)C(=O)N[C@@H](Cc1c[nH]cn1)C(=O)N[C@@H](CCCNC(=N)N)C(=O)N[C@@H](CC(C)C)C(=O)N[C@@H](CCCCN)C(=O)N[C@@H](CCCNC(=N)N)C(=O)N[C@@H](CCSC)C(=O)N[C@@H](CCCNC(=N)N)C(=O)N[C@@H](CCCCN)C(=O)N[C@@H](CCCNC(=N)N)C(=O)N[C@@H](CC(C)C)C(=O)N[C@@H](CCCCN)C(=O)N[C@@H](CCCNC(=N)N)C(=O)N[C@@H](CCCCN)C(=O)N[C@@H](CC(C)C)C(=O)N[C@@H](CCCNC(=N)N)C(=O)N[C@@H](Cc1ccccc1)C(=O)N[C@@H](Cc1c[nH]c2ccccc12)C(=O)N[C@@H](Cc1c[nH]cn1)C(=O)N[C@@H](CCCNC(=N)N)C(=O)N[C@@H](CCCCN)C(=O)N[C@@H](CCCNC(=N)N)C(=O)N[C@@H](Cc1ccc(O)cc1)C(=O)N[C@@H](CCCCN)C(=O)O [AG30-5C, reference compound] (H-MLKLIFLHRLKRMRKRLKRKLRFWHRKRYK-OH; N-terminus and C-terminus assumed)
- The Length of Lumina (Percentage when taking Control as 100): 119.1%
